ChEMBL document CHEMBL1132634, “Bound structures of novel P3-P1' beta-strand mimetic inhibitors of thrombin” (J Med Chem, 1999)

What was measured:
[1] = target: T1, Prothrombin (Homo sapiens, UniProt P00734)
Description: Binding rate constant towards thrombin was determined

[2] = target: T1, Prothrombin; assay: Binding affinity towards thrombin was determined

| Ki [2] [nM] | Structure (SMILES) | k on [1] [M⁻¹ s⁻¹] |
| --- | --- | --- |
| – | NCCCC[C@H](NC(=O)[C@@H]1CCN2CC[C@@](N)(Cc3ccccc3)C(=O)N12)C(=O)C(=O)NC1CCCCC1 | 1e+06 |
| – | N=C(N)NCCC[C@H](NC(=O)[C@@H]1CCN2CC[C@@](N)(Cc3ccccc3)C(=O)N12)C(=O)C(=O)NCCc1ccccc1 | 640000 |
| 0.65 | N=C(N)NCCC[C@H](NC(=O)[C@@H]1CC[C@@H]2CC[C@@](N)(Cc3ccccc3)C(=O)N21)C(=O)c1nc2ccccc2s1 | – |
